From ChEMBL document CHEMBL3885881, “DrugMatrix”

Species on record: Rattus norvegicus
Test: DrugMatrix - Regimen: Daily Repeat
Assay type: toxicity, organism-based, Sprague-Dawley
Set-up: regimen Daily Repeat, gender Male, age 6-8 weeks
Settings: in vivo, po, route oral GAVAGE; for ALANINE AMINOTRANSFERASE / ALBUMIN / ALKALINE PHOSPHATASE / ASPARTATE AMINOTRANSFERASE / BLOOD UREA NITROGEN / CARBON DIOXIDE / CHLORIDE / CHOLESTEROL / CREATINE PHOSPHOKINASE / CREATININE / GLUCOSE / LACTATE DEHYDROGENASE / LIPASE / PHOSPHORUS / POTASSIUM / SODIUM / TOTAL BILIRUBIN / TOTAL PROTEIN / URIC ACID: tissue Plasma
[1] = 4.5 mg/kg, 72 h, tissue Blood, dose level Low, time 3 day, vehicle 100 % WATER
[2] = 4.5 mg/kg, 72 h, dose level Low, time 3 day, vehicle 100 % WATER
[3] = 4.5 mg/kg, 120 h, tissue Blood, dose level Low, time 5 day, vehicle 100 % WATER
[4] = 4.5 mg/kg, 120 h, dose level Low, time 5 day, vehicle 100 % WATER
[5] = 7 mg/kg, 96 h, tissue Blood, dose level M1, time 4 day, […]

SMILES: COc1ccc2c(c1)c(CC(=O)O)c(C)n2C(=O)c1ccc(Cl)cc1 [INDOMETHACIN]
- HEMATOCRIT [1]: 32.73%
- HEMOGLOBIN [1]: 13.1 G/DL
- LEUKOCYTE COUNT [1]: 8.7 x10E3/uL
- LYMPHOCYTE [1]: 87.33%
- MEAN CORPUSCULAR HEMOGLOBIN [1]: 25.43 pg
- MEAN CORPUSCULAR HEMOGLOBIN CONCENTRATION [1]: 40.03 G/DL
- MEAN CORPUSCULAR VOLUME [1]: 63.57 fL
- MONOCYTE [1]: 2.33%
- NEUTROPHIL [1]: 10.33%
- NUCLEATED RED BLOOD CELLS [1]: 0 /100WBC
- PLATELET COUNT [1]: 1131.67 x10E3/uL
- ALANINE AMINOTRANSFERASE [2]: 52.67 u/L
- ALBUMIN [2]: 3.9 G/DL
- ALKALINE PHOSPHATASE [2]: 367 u/L
- ASPARTATE AMINOTRANSFERASE [2]: 74.33 u/L
- BLOOD UREA NITROGEN [2]: 13.67 mg/dL
- CARBON DIOXIDE [2]: 24.67 mmol/L
- CHLORIDE [2]: 94 MEQ/L
- CHOLESTEROL [2]: 72.33 mg/dL
- CREATINE PHOSPHOKINASE [2]: 273.33 u/L
- CREATININE [2]: 0.1 mg/dL
- GLUCOSE [2]: 165 mg/dL
- LACTATE DEHYDROGENASE [2]: 101.67 u/L
- LIPASE [2]: 9 u/L
- PHOSPHORUS [2]: 11.6 mg/dL
- POTASSIUM [2]: 5.46 MEQ/L
- SODIUM [2]: 137.1 MEQ/L
- TOTAL BILIRUBIN [2]: 0.13 mg/dL
- TOTAL PROTEIN [2]: 5.7 G/DL
- URIC ACID [2]: 0.8 mg/dL
- ABSOLUTE BASOPHIL [3]: 0 CELLS/uL
- ABSOLUTE EOSINOPHIL [3]: 66.67 CELLS/uL
- ABSOLUTE LYMPHOCYTE [3]: 7873.33 CELLS/uL
- ABSOLUTE MONOCYTE [3]: 253.33 CELLS/uL
- ABSOLUTE SEGMENTED NEUTROPHIL [3]: 1273.33 CELLS/uL
- BASOPHIL [3]: 0%
- EOSINOPHIL [3]: 0.67%
- ERYTHROCYTE COUNT [3]: 4.7 x10E6/uL
- HEMATOCRIT [3]: 30.3%
- HEMOGLOBIN [3]: 12.03 G/DL
- LEUKOCYTE COUNT [3]: 9.47 x10E3/uL
- LYMPHOCYTE [3]: 83%
- MEAN CORPUSCULAR HEMOGLOBIN [3]: 25.6 pg
- MEAN CORPUSCULAR HEMOGLOBIN CONCENTRATION [3]: 39.67 G/DL
- MEAN CORPUSCULAR VOLUME [3]: 64.47 fL
- MONOCYTE [3]: 2.67%
- NEUTROPHIL [3]: 13.67%
- NUCLEATED RED BLOOD CELLS [3]: 0 /100WBC
- PLATELET COUNT [3]: 1362.67 x10E3/uL
- ALANINE AMINOTRANSFERASE [4]: 48.67 u/L
- ALBUMIN [4]: 3.83 G/DL
- ALKALINE PHOSPHATASE [4]: 350.67 u/L
- ASPARTATE AMINOTRANSFERASE [4]: 60.67 u/L
- BLOOD UREA NITROGEN [4]: 12 mg/dL
- CARBON DIOXIDE [4]: 32 mmol/L
- CHLORIDE [4]: 105 MEQ/L
- CHOLESTEROL [4]: 66.67 mg/dL
- CREATINE PHOSPHOKINASE [4]: 173.67 u/L
- CREATININE [4]: 0.11 mg/dL
- GLUCOSE [4]: 154 mg/dL
- LACTATE DEHYDROGENASE [4]: 70.33 u/L
- LIPASE [4]: 9.67 u/L
- PHOSPHORUS [4]: 11 mg/dL
- POTASSIUM [4]: 5.99 MEQ/L
- SODIUM [4]: 146.87 MEQ/L
- TOTAL BILIRUBIN [4]: 0.2 mg/dL
- TOTAL PROTEIN [4]: 5.77 G/DL
- URIC ACID [4]: 0.53 mg/dL
- ABSOLUTE BASOPHIL [5]: 0 CELLS/uL
- ABSOLUTE EOSINOPHIL [5]: 0 CELLS/uL
- ABSOLUTE LYMPHOCYTE [5]: 6250 cells/µL
- ABSOLUTE MONOCYTE [5]: 160 cells/µL
- BASOPHIL [5]: 0%
- EOSINOPHIL [5]: 0%
- ERYTHROCYTE COUNT [5]: 3.97 x10E6/uL
- HEMATOCRIT [5]: 25.4%
- HEMOGLOBIN [5]: 8.9 G/DL
- LEUKOCYTE COUNT [5]: 12.7 x10E3/uL
- LYMPHOCYTE [5]: 78.5%
- MEAN CORPUSCULAR HEMOGLOBIN [5]: 22.6 pg
- MEAN CORPUSCULAR HEMOGLOBIN CONCENTRATION [5]: 35.1 G/DL
- MEAN CORPUSCULAR VOLUME [5]: 64.5 fL
- MONOCYTE [5]: 2%
- NEUTROPHIL [5]: 19.5%
